Reference: patent publication US8022091B2, “Triazole derivative” (Taisho Pharmaceutical Co., Ltd., priority 2006, dated 2011)

biological target: T1, human Edg-1 (S1P1) (Homo sapiens, UniProt P21453); test: S1P1 binding assay: inhibition of [33P]-S1P binding to membrane fraction of HEK-293 cells transferred with the human Edg-1 (S1P1) gene; conditions: test compound 10 μM; inhibition of [33P]-S1P binding, membrane fraction
T1 construct: expressed in transfected cells; host or cells: HEK-293
Summary of the method: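 With 0.1 nM [33P]-S1P and compound (10^−5M single point, or a concentration range for IC50) in 0.1% DMSO, membrane fractions from human Edg-1-expressing HEK-293 cells were treated for one hour at 30° C in 20 mM Tris-HCl pH 7.4 with NaF, deoxypyridoxine and BSA. Bound label was measured after filtration, with untransfected-cell background subtracted.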

T1 sequence (P21453 whole entry): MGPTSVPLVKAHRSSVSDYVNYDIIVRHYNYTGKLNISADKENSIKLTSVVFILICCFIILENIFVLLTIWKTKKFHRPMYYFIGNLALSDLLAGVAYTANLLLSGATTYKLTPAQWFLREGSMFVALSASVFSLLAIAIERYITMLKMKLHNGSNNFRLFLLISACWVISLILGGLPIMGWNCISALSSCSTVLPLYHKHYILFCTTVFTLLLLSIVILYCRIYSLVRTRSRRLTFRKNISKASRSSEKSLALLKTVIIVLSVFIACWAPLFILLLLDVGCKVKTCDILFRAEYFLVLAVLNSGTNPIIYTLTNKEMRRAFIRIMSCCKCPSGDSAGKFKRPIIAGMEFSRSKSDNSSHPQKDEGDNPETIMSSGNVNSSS

| SMILES | inhibition at 10 µM [%] |
| --- | --- |
| CCn1c(Oc2cccc(N3CCN(C)CC3)c2)nnc1[C@@H](C)NS(=O)(=O)c1cccc(Cl)c1 [Compound 572] | 96.5 |
| CCn1c(Oc2cccc(N3CCN(C)CC3)c2)nnc1[C@@H](C)NS(=O)(=O)c1ccc(C(C)C)cc1 [Compound 573] | 86.3 |
| CCn1c(Oc2cccc(N3CCN(C)CC3)c2)nnc1[C@@H](C)NS(=O)(=O)c1c(Cl)cc(C(F)(F)F)cc1Cl [Compound 579] | 87.6 |
| CCn1c(Oc2cccc(N3CCN(C)CC3)c2)nnc1[C@@H](C)NS(=O)(=O)c1cc(F)c(F)cc1Cl [Compound 580] | 89.2 |
| CCn1c(Oc2cccc(N3CCN(C)CC3)c2)nnc1[C@@H](C)NS(=O)(=O)c1cc(F)c(Cl)cc1F [Compound 583] | 109 |
| CCn1c(Oc2cccc(N3CCN(C)CC3)c2)nnc1[C@@H](C)NS(=O)(=O)Cc1ccc(Cl)c(Cl)c1 [Compound 586] | 87.9 |
| CCn1c(Oc2cccc(N3CCN(C)CC3)c2)nnc1[C@@H](C)NS(=O)(=O)CC(c1ccccc1)c1ccccc1 [Compound 587] | 60 |
| CCn1c(Oc2cccc(N3CCN(C)CC3)c2)nnc1[C@@H](C)NS(=O)(=O)c1c(F)c(Br)cc(F)c1Br [Compound 589] | 80.2 |
| CCn1c(Oc2cccc(N3CCN(C)CC3)c2)nnc1[C@@H](C)NS(=O)(=O)c1cc(C(F)(F)F)ccc1Cl [Compound 591] | 77.5 |
| CCn1c(Oc2cccc(N3CCN(C)CC3)c2)nnc1[C@@H](C)NS(=O)(=O)c1ccc(NC(C)=O)c(Cl)c1 [Compound 593] | 65.9 |
| CCn1c(Oc2cccc(N3CCN(C)CC3)c2)nnc1[C@@H](C)NS(=O)(=O)c1c(C)cc(Cl)cc1Cl [Compound 595] | 93.7 |
| CCn1c(Oc2cccc(N3CCN(C)CC3)c2)nnc1[C@@H](C)NS(=O)(=O)c1cc(F)c(F)cc1F [Compound 596] | 100 |
| CCn1c(Oc2cccc(N3CCN(C)CC3)c2)nnc1[C@@H](C)NS(=O)(=O)c1ccc(-c2ccno2)s1 [Compound 598] | 89.5 |
| CCn1c(Oc2cccc(N3CCN(C)CC3)c2)nnc1[C@@H](C)NS(=O)(=O)Cc1cccc(Cl)c1 [Compound 599] | 80.6 |
| CCn1c(Oc2cccc(N3CCN(C)CC3)c2)nnc1[C@@H](C)NS(=O)(=O)c1ccc(OC(F)F)cc1 [Compound 603] | 107 |
| CCn1c(Oc2cccc(N3CCN(C)CC3)c2)nnc1[C@@H](C)NS(=O)(=O)c1cccc(OC(F)F)c1 [Compound 604] | 109 |
| CCn1c(Oc2cccc(N3CCN(C)CC3)c2)nnc1[C@@H](C)NS(=O)(=O)c1c(F)cc(F)cc1Br [Compound 605] | 83.4 |
| CCn1c(Oc2cccc(N3CCN(C)CC3)c2)nnc1[C@@H](C)NS(=O)(=O)c1cc(F)c(F)c(F)c1 [Compound 608] | 109 |

| SMILES | inhibition at 10 µM [%] |
| --- | --- |
| CCn1c(Oc2cccc(N3CCN(C)CC3)c2)nnc1[C@@H](C)NS(=O)(=O)c1ccc(C(F)(F)F)cc1Br [Compound 610] | 91.2 |
| CCn1c(Oc2cccc(N3CCN(C)CC3)c2)nnc1[C@@H](C)NS(=O)(=O)c1cc(C(F)(F)F)ccc1Br [Compound 611] | 63.9 |
| CCn1c(Oc2cccc(N3CCN(C)CC3)c2)nnc1[C@@H](C)NS(=O)(=O)c1c(Cl)cc(Br)cc1Cl [Compound 617] | 77.5 |
| CCn1c(Oc2cccc(N3CCN(C)CC3)c2)nnc1[C@@H](C)NS(=O)(=O)CCCOc1ccc(OC)cc1 [Compound 618] | 65.4 |
| CCn1c(Oc2cccc(N3CCN(C)CC3)c2)nnc1[C@@H](C)NS(=O)(=O)CC1CCCCC1 [Compound 627] | 90 |
| CCCCCCCCCCS(=O)(=O)N[C@H](C)c1nnc(Oc2cccc(N3CCN(C)CC3)c2)n1CC [Compound 628] | 64.4 |
| CCn1c(Oc2cccc(N3CCN(C)CC3)c2)nnc1[C@@H](C)NS(=O)(=O)c1cc(C)oc1C(F)(F)F [Compound 629] | 101 |
| CCn1c(Oc2cccc(N3CCN(C)CC3)c2)nnc1[C@@H](C)NS(=O)(=O)c1ccc2c(c1)OCCO2 [Compound 630] | 107 |
| CCn1c(Oc2cccc(N3CCN(C)CC3)c2)nnc1[C@@H](C)NS(=O)(=O)c1sc(C)nc1C [Compound 631] | 95.2 |
| CCn1c(Oc2cccc(N3CCN(C)CC3)c2)nnc1[C@@H](C)NS(=O)(=O)c1cccc2nsnc12 [Compound 632] | 59.9 |
| CCn1c(Oc2cccc(N3CCN(C)CC3)c2)nnc1[C@@H](C)NS(=O)(=O)c1ccc2nsnc2c1 [Compound 633] | 111 |
| CCn1c(Oc2cccc(N3CCN(C)CC3)c2)nnc1[C@@H](C)NS(=O)(=O)c1cccc2nonc12 [Compound 634] | 51 |
| CCn1c(Oc2cccc(N3CCN(C)CC3)c2)nnc1[C@@H](C)NS(=O)(=O)c1ccsc1 [Compound 635] | 68.7 |
| CCn1c(Oc2cccc(N3CCN(C)CC3)c2)nnc1[C@@H](C)NS(=O)(=O)c1ccc(-c2cnco2)s1 [Compound 636] | 85.7 |
| CCn1c(Oc2cccc(N3CCN(C)CC3)c2)nnc1[C@@H](C)NS(=O)(=O)c1cnn(-c2ccccc2)c1C [Compound 637] | 50.6 |
| CCn1c(Oc2cccc(N3CCN(C)CC3)c2)nnc1[C@@H](C)NS(=O)(=O)c1ccc(-c2ccnc(SC)n2)s1 [Compound 640] | 59.5 |
| CCn1c(Oc2cccc(N3CCN(C)CC3)c2)nnc1[C@@H](C)NS(=O)(=O)c1ccc(C(F)(F)F)cc1Cl [Compound 644] | 93 |
| CCn1c(Oc2cccc(N3CCN(C)CC3)c2)nnc1[C@@H](C)NS(=O)(=O)c1cccc(C(C)=O)c1 [Compound 647] | 99 |

Second part, the compound after the results:

| inhibition at 10 µM [%] | SMILES |
| --- | --- |
| 86.9 | CCc1cc(Br)ccc1S(=O)(=O)N[C@H](C)c1nnc(Oc2cccc(N3CCN(C)CC3)c2)n1CC [Compound 574] |
| 104 | CCn1c(Oc2cccc(N3CCN(C)CC3)c2)nnc1[C@@H](C)NS(=O)(=O)c1ccc(Br)cc1C [Compound 575] |
| 81.4 | CCn1c(Oc2cccc(N3CCN(C)CC3)c2)nnc1[C@@H](C)NS(=O)(=O)c1ccc(C#N)cc1Cl [Compound 576] |
| 92.4 | CCn1c(Oc2cccc(N3CCN(C)CC3)c2)nnc1[C@@H](C)NS(=O)(=O)c1ccc(F)c(F)c1F [Compound 577] |
| 99.9 | CCn1c(Oc2cccc(N3CCN(C)CC3)c2)nnc1[C@@H](C)NS(=O)(=O)c1ccc(F)c(F)c1 [Compound 581] |
| 106 | CCn1c(Oc2cccc(N3CCN(C)CC3)c2)nnc1[C@@H](C)NS(=O)(=O)c1ccc(Br)cc1F [Compound 582] |
| 109 | CCn1c(Oc2cccc(N3CCN(C)CC3)c2)nnc1[C@@H](C)NS(=O)(=O)c1cc(C)c(Cl)cc1Cl [Compound 588] |
| 62.3 | CCn1c(Oc2cccc(N3CCN(C)CC3)c2)nnc1[C@@H](C)NS(=O)(=O)c1c(F)cccc1F [Compound 590] |
| 95.8 | CCn1c(Oc2cccc(N3CCN(C)CC3)c2)nnc1[C@@H](C)NS(=O)(=O)c1cccc(F)c1 [Compound 592] |
| 84 | CCn1c(Oc2cccc(N3CCN(C)CC3)c2)nnc1[C@@H](C)NS(=O)(=O)c1cc(Cl)ccc1OC [Compound 594] |
| 97.3 | CCn1c(Oc2cccc(N3CCN(C)CC3)c2)nnc1[C@@H](C)NS(=O)(=O)c1cc(Br)ccc1Br [Compound 597] |
| 100 | CCn1c(Oc2cccc(N3CCN(C)CC3)c2)nnc1[C@@H](C)NS(=O)(=O)c1ccc(Br)cc1Br [Compound 600] |
| 100 | CCn1c(Oc2cccc(N3CCN(C)CC3)c2)nnc1[C@@H](C)NS(=O)(=O)c1ccc(F)c(C#N)c1 [Compound 601] |
| 107 | CCn1c(Oc2cccc(N3CCN(C)CC3)c2)nnc1[C@@H](C)NS(=O)(=O)c1cc(C)cc(C)c1 [Compound 602] |
| 108 | CCn1c(Oc2cccc(N3CCN(C)CC3)c2)nnc1[C@@H](C)NS(=O)(=O)c1cc(F)cc(F)c1 [Compound 606] |
| 93.1 | CCn1c(Oc2cccc(N3CCN(C)CC3)c2)nnc1[C@@H](C)NS(=O)(=O)c1ccc(F)cc1Br [Compound 609] |
| 114 | CCn1c(Oc2cccc(N3CCN(C)CC3)c2)nnc1[C@@H](C)NS(=O)(=O)c1ccc(C)c(F)c1 [Compound 612] |
| 90.9 | CCn1c(Oc2cccc(N3CCN(C)CC3)c2)nnc1[C@@H](C)NS(=O)(=O)c1ccc(F)cc1C [Compound 613] |
| 77.8 | CCn1c(Oc2cccc(N3CCN(C)CC3)c2)nnc1[C@@H](C)NS(=O)(=O)c1cc(Cl)ccc1F [Compound 614] |
| 110 | CCn1c(Oc2cccc(N3CCN(C)CC3)c2)nnc1[C@@H](C)NS(=O)(=O)c1ccc(Br)c(F)c1 [Compound 615] |
| 99.9 | CCn1c(Oc2cccc(N3CCN(C)CC3)c2)nnc1[C@@H](C)NS(=O)(=O)c1ccc(Br)cc1Cl [Compound 616] |
| 114 | CCn1c(Oc2cccc(N3CCN(C)CC3)c2)nnc1[C@@H](C)NS(=O)(=O)c1ccc(C)c(C)c1 [Compound 619] |
| 88.4 | CCn1c(Oc2cccc(N3CCN(C)CC3)c2)nnc1[C@@H](C)NS(=O)(=O)c1cc(C)ccc1F [Compound 620] |
| 95.4 | CCn1c(Oc2cccc(N3CCN(C)CC3)c2)nnc1[C@@H](C)NS(=O)(=O)c1cccc(Cl)c1F [Compound 621] |
| 58.9 | CCn1c(Oc2cccc(N3CCN(C)CC3)c2)nnc1[C@@H](C)NS(=O)(=O)c1ccc(F)cc1C(F)(F)F [Compound 622] |
| 61.1 | CCn1c(Oc2cccc(N3CCN(C)CC3)c2)nnc1[C@@H](C)NS(=O)(=O)c1ccccc1OC [Compound 626] |
| 85.2 | CCn1c(Oc2cccc(N3CCN(C)CC3)c2)nnc1[C@@H](C)NS(=O)(=O)c1cc(C)sc1C [Compound 641] |
| 85.5 | CCn1c(Oc2cccc(N3CCN(C)CC3)c2)nnc1[C@@H](C)NS(=O)(=O)c1ccc(OC)cc1OC [Compound 642] |
